Results from patent US4117133A, “Vasodilating cuanzine hydrazides” (Inverni Della Beffa S.p.A., priority 1975, dated 1978).
Values after ≈ are worked out from the molar mass of the structure shown. Structures can show the parent of a compound that is named as a salt.

Columns and labels:
[1] = tested on: anaesthetized mongrel dogs; assay: Haemodynamic activities in anaesthetized dogs; type: in vivo; parameters: key to Flow coronary / Flow femoral / Contractive power of heart: +++: intense increase; ++: moderate increase; +: faint increase; =: no change; conditions: intravenous; for Arterial pressure Average variation carotid / Arterial pressure Average variation femoral / Contractive power of heart / Flow coronary / Flow femoral: one twentieth of the LD50: cuanzine HCl 8, hydrazide bitartrate 10, 21-epicuanzine HCl 5, apocuanzine HCl 2.5, dimethylaminoethyl ester 10 mg/kg
Method: The products under investigation were administered intravenously to anaesthetized mongrel dogs in doses which were in proportion to the lethal dose (one twentieth of the LD50).
The average of the carotid and femoral arterial pressures, the […] coronary and femoral flow rates and the contractive power of the heart were measured and the results are shown in Table I.

[2] = tested on: isolated ileum of guinea pigs; assay: Spasmolytic activity on the isolated ileum of guinea pigs (acetylcholine-induced spasm); conditions: limits in parentheses, contact time spasmogenic 1 min, spasmolytic 3 min, interval between administrations 5 min; for IC50: Cavia porcellus, 0.05 h, read-out: ED50 and base limits on spasm induced by 100 mg/ml of acetylcholine
Method: (1) (1) induced by 100 mg/ml of acetylcholine
(1) The time of contact of the spasmogenic and spasmolytic substances was
1 and 3 minutes, respectively.
The interval between the administrations was 5 minutes.

Row | Compound | Arterial pressure Average variation carotid [1] [mm Hg] | Arterial pressure Average variation femoral [1] [mm Hg] | Contractive power of heart [1] | Flow coronary [1] | Flow femoral [1] | IC50 [2] [µg/mL] | ED50 and base limits on spasm induced by 100 mg/ml of acetylcholine [2] | haemodynamic activity compared with cuanzine (in words) ([1]; anaesthetized dogs, one twentieth of the LD50)
1 | COC(=O)[C@]1(O)C[C@]23CCO[C@H]2CCN2CCc4c(n1c1c(OC)cccc41)[C@@H]23 [Cuanzine hydrochloride, reference compound] | -10 | -10 | = | ++ | + | 120 |  | 
2 | COc1cccc2c3c([nH]c12)[C@H]1N(CC3)CC[C@@H]2OCC[C@@]21CC(=NN)C(=O)NN [Cuanzine hydrazide bitartrate] | -30 | -30 | + | +++ | ++ | 74 |  | 
3 | COC(=O)C1=C[C@]23CCO[C@H]2CCN2CCc4c(n1c1c(OC)cccc41)[C@@H]23 [Apocuanzine hydrochloride, Apocuanzine] | -15 | -15 | + | +++ | + |  |  | 
4 | 21-epicuanzine |  |  |  |  |  |  | 37 (68.8 - 19.9) γ/ml | 
5 | COC(=O)C1=C[C@]23CCO[C@H]2CCN2CCc4c(n1c1c(OC)cccc41)[C@@H]23 [Apocuanzine] |  |  |  |  |  | 26.5 (≈ 69.7 µM) |  | 
6 | COc1cccc2c3c4n(c12)[C@](O)(C(=O)OCCN(C)C)C[C@]12CCO[C@H]1CCN(CC3)[C@H]42 [N,N-dimethylaminoethyl nor-cuanzinate] | -10 | -10 | = | ++ | + |  |  | as active as cuanzine
7 | COC(=O)[C@]1(O)C[C@]23CCO[C@H]2CCN2CCc4c(n1c1c(OC)cccc41)[C@H]23 [21-epicuanzine hydrochloride, 21-Epicuanzine (A=β-H,B = CO2 Me, C=OH,D=H) hydrochloride] | -20 | -20 | = | ++ | + |  |  | 
